{"source": "patent US8409166B2", "about": "“Method for pressure mediated selective delivery of therapeutic substances and cannula” (The United States of America as represented by the …, priority 1998, dated 2013)", "key": {"[1]": {"test_system": "intrahepatic tight junctions", "test": "Constant pressure retrograde biliary infusion in mice (flow rate, resistance, paracellular leakage)", "conditions": "for Ave Counts (paracellular leakage): Cholestatic 04 day mice", "from_the_text": "FIG. 35 is a diagram of a working example of a system for constant-pressure intralumenal delivery. […] A working model was regulated using an adaptation of a Cole-Palmer pressure controller. Infusion fluid from the reservoir flows through capillary glass tubes 224 on its way to an infusion line 226. Flow rates may then be determined by tracking air bubbles 228 in the capillary glass tubes 224 with a ruler 229. A pressure sensor 230 detects the pressure of the infusion fluid at a location near the infusion line 226.\nTo set up the system, fluid was added to the reservoir, and the system was rinsed and filled with fluid. The infusion line 226 was then surgically placed into the animal's organ. […] By adjusting the controller setting the desired pressure could be obtained at the pressure sensor, which was kept at the same height (z=0) as the animal. The reading at the pressure sensor was thus equal to the applied pressure (the pump pressure) plus the pressure head (the pressure increase due to the change in height between the top of the liquid level in the reservoir and the height of the infusion line). The infusion line was kept at the same height as the pressure sensor and the animal on the operating table. Alternate systems could be of course be adapted in which a constant pressure is maintained at the pressure sensor and not at the top of the Reservoir. This would be most important when a large volume of fluid is infused.\nThe flow rate of infusion fluid was experimentally recorded in the following way: the cross sectional area of the bubble tube was determined by injecting a known volume of water (from syringe 232) into a measured length of the bubble tube. The cross sectional area was 0.0233 cm^2 (0.35 cc in 15 cm). When the flow started, an air bubble was slowly injected into the infusion fluid flow. The bubble then traveled down the bubble tube. At the end of the tube, the bubble would rise up into the bubble trap 234 and displace an equal volume of liquid. For each bubble 25 time points were recorded, on 1-cm intervals of ruler 229. The time versus distance that the bubble had traveled could be plotted and the slope of this line was the velocity of the bubble. Multiplying the slope by the cross sectional area of the bubble tube gave the average flow rate of the infusion fluid. This method of flow rate measurement is a working and experimental model for the purpose of illustration. In practice, flow rates may also be determined by ultrasonic or other methods known to those of skill in the art.\nConstant pressure infusion was evaluated in mice using the retrograde biliary infusion setup described previously. The constant pressure device was substituted for the microinfusion pump. […] Infusion flow rates were recorded using the bubble tube method described above. Blood samples were obtained and evaluated as described above.\nSolutes evaluated included sucrose (molecular weight 370), inulin (molecular weight 5,200), and Dextran (molecular weight 70,000)."}, "[2]": {"test_system": "interhepatocyte tight junctions", "test": "Retrograde biliary infusion of lanthanum chloride, electron microscopy of intrahepatic distribution", "type": "in vivo, mice", "conditions": "720 μl of 5 mM at 2 or 8 μl/second", "method": "Movement of fluid from the intralumenal space may conceivably occur either directly across physically opened tight junctions or indirectly by altered rates of transepithilial transcytosis. […] The ability of retrograde biliary infusion to disrupt tight junctions was evaluated by qualitative ultrastructural examination of the intrahepatic distribution of lanthanum chloride, a heavy metal normally impermeant to structurally intact tight junctions.\nAnimals were infused retrograde with either 5 mM lanthanum chloride (Sigma) or 0.9% NaCl vehicle. Three infusions of 240 μl volume were administered per animal at a rate of 2 or 8 μl/second, with a 10 second pause between infusions. Freshly removed tissue was fixed overnight in 2% glutaraldehyde in 0.2 M cacodylate buffer. Following standard processing and embedding, 0.5 micrometer thick sections were stained with uranyl acetate and lead citrate. Sections were then examined using a Philips 201 Electron Microscope."}, "[3]": {"test_system": "urinary bladder epithelial cell tight junctions", "test": "Intralumenal delivery to the rabbit urinary bladder (electron and fluorescent microscopy)", "type": "in vivo, Dutch Belted Rabbits", "conditions": "5 mM, 10 minutes", "from_the_text": "As an experimental model to mimic retrourethral delivery, male Dutch Belted Rabbits (1-2 Kg BW) had PE-50 tubing placed in the lumen of each […] and advanced so that the tips were within the lumen of the urinary bladder. One ureteral catheter was connected to a pressure transducer and used for recording intralumenal pressure. The other ureteral catheter was connected to a microinfusion pump. Microvascular clips were placed on the ureters to prevent retrograde reflux. The urethra was occluded using a vascular loop. 5 mM Lanthanum Chloride was infused so that the intralumenal pressure was either 25 mm Hg or 50 mm Hg.\nTissues were removed 10 minutes later and processed for electron microscopy. […] Following the administration of 200 nm fluorescent latex microspheres at 50 mm-[…] intralumenal pressure, the urinary bladder was removed and processed for fresh-frozen sections."}, "[4]": {"conditions": "constant pressure retrograde biliary infusion"}}}
{"compound": "OC[C@H]1O[C@@](CO)(O[C@H]2O[C@H](CO)[C@@H](O)[C@H](O)[C@H]2O)[C@@H](O)[C@@H]1O", "note": "[[14C]-sucrose]", "values": [{"measurement": "appearance in systemic bloodstream", "setting": "[1]; mouse, in vivo", "value": "detected in the systemic bloodstream"}]}
{"compound": "[Cl][La]([Cl])[Cl]", "note": "[lanthanum chloride]", "values": [{"measurement": "electron dense deposits at bile ducts", "setting": "[2]", "value": "found within bile ducts but not in their adjacent subepithelial tissue compartments"}, {"measurement": "electron dense deposits at canaliculi and subepithelial compartments", "setting": "[2]", "value": "within biliary canaliculi, interhepatocyte cell spaces, and the perisinusoidal Space of Disse"}, {"measurement": "electron microscopy finding in urinary bladder", "setting": "[3]; intralumenal pressure 25 mm Hg", "value": "electron dense deposits were detected in the intercellular spaces between epithelial cells"}, {"measurement": "electron microscopy finding in urinary bladder", "setting": "[3]; intralumenal pressure 50 mm Hg", "value": "some evidence of patchy epithelial denudation"}]}
{"compound": "Dextran", "values": [{"measurement": "appearance in systemic bloodstream", "setting": "[1]; [4]", "value": "detected in the systemic bloodstream"}]}
{"compound": "[14C]-inulin", "values": [{"measurement": "Ave Counts (paracellular leakage)", "setting": "[1]; 10 mmHg", "value": 27}, {"measurement": "Ave Counts (paracellular leakage)", "setting": "[1]; 20 mmHg", "value": 2534}, {"measurement": "Ave Counts (paracellular leakage)", "setting": "[1]; 40 mmHg", "value": 20134}, {"measurement": "appearance in systemic bloodstream", "setting": "[1]; [4]", "value": "detected in the systemic bloodstream"}]}
